This passage reports IC50, inhibition and Activity results from ChEMBL document CHEMBL5143613, “Discovery of 6,7-dihydro-5H-pyrrolo[3,4-d] pyrimidine derivatives as a new class of ATR inhibitors” (Bioorg Med Chem Lett, 2022).

The nature of experiment [1]: Inhibition of recombinant full-length human ATR M211T mutant using GST-cMyc-p53 as substrate incubated for 40 mins by HTRF assay.
Another experiment has as its system LoVo. The experiment is described as follows: Anti-tumor activity against human LoVo cells assessed as inhibition of cell viability incubated for 72 hrs by MTT assay. The format is functional, cell-based.
Experiment [2] relates to A2780. Briefly: Anti-tumor activity against human A2780 cells assessed as inhibition of cell viability incubated for 72 hrs by MTT assay. It counts as functional, cell-based. The conditions noted are these: A2780, 72 h.
The test system of the next experiment is Granta-519. Briefly: Anti-tumor activity against human Granta-519 cells assessed as inhibition of cell viability incubated for 72 hrs by MTT assay. It counts as functional, cell-based. The note with it: Granta-519, 72 h.
In another experiment the test system is SW-620. The experiment is described as follows: Anti-tumor activity against human SW-620 cells assessed as inhibition of cell viability incubated for 72 hrs by MTT assay. The format is functional, cell-based. The conditions noted are these: SW-620, 72 h.
The subject of the next experiment is NCI-H23. Briefly: Anti-tumor activity against human NCI-H23 cells assessed as inhibition of cell viability incubated for 72 hrs by MTT assay. It counts as functional, cell-based. The conditions noted are these: NCI-H23, 72 h.
The test system of another experiment is MDA-MB-436. Briefly: Anti-tumor activity against human MDA-MB-436 cells assessed as inhibition of cell viability incubated for 72 hrs by MTT assay. The conditions noted are these: MDA-MB-436, 72 h. The format is functional, cell-based.
The subject of a further experiment is MDA-MB-468. Briefly: Anti-tumor activity against human MDA-MB-468 cells assessed as inhibition of cell viability incubated for 72 hrs by MTT assay. It counts as functional, cell-based. The note with it: MDA-MB-468, 72 h.
The test system of a further experiment is CWR22R. The experiment is described as follows: Anti-tumor activity against human 22Rv1 cells assessed as inhibition of cell viability incubated for 72 hrs by MTT assay. It counts as functional, cell-based. The note with it: 22Rv1, 72 h.
The target in experiment [3] is Serine/threonine-protein kinase B-raf (Homo sapiens, UniProt P15056). Briefly: Inhibition of human recombinant B-Raf (416 to end residues) using myelin basic protein as substrate in presence of [gamma-33P]ATP incubated for 40 mins by radiometric scintillation counting analysis.
Experiment [4] relates to A2780. The experiment is described as follows: Inhibition of colony formation in human A2780 cells by crystal violet staining based analysis. It counts as functional, cell-based. The note with it: dose 0.03-3 µM, DDE = dose-dependent effect.
Experiment [5] addresses Serine/threonine-protein kinase ATR (Homo sapiens) (UniProt Q13535). Briefly: Inhibition of ATR in HU-treated human A2780 cells assessed as inhibition of Chk1 phosphorylation at Ser345 residue by Western blot assay. The format is cell-based. The note with it: dose 0.03-10 µM, DDE = dose-dependent effect.
Experiment [6] has the same target. Briefly: Inhibition of ATR in HU-treated human A2780 cells assessed as inhibition of ATR phosphorylation by Western blot assay. It counts as cell-based. The note with it: dose 0.03-10 µM, DDE = dose-dependent effect.
The target of another experiment is FKBP12A/mTOR (Homo sapiens, UniProt P42345+P62942). Briefly: Inhibition of human full length recombinant mTOR/FKBP12 in presence of [gamma-33P]ATP incubated for 40 mins by radiometric scintillation counting analysis. It counts as protein-complex assay.
In experiment [7] the target is PI3-kinase p110-delta/p85-alpha (Homo sapiens, UniProt O00329). Briefly: Inhibition of recombinant human full length PI3K p110delta/p85a using phosphatidylinositol-4, 5-bisphosphate as substrate incubated for 40 mins in presence of [gamma33P]ATP by radiometric scintillation counting analysis. It counts as protein-complex assay.
The target of experiment [8] is Serine/threonine-protein kinase ATR (Homo sapiens) (UniProt Q13535). Briefly: Inhibition of ATR in human A2780 cells assessed as induction of DNA damage incubated for 3 days by DAPI staining based immunofluorescence analysis. It counts as cell-based. The conditions noted are these: dose 1-10 µM, time 3.0 day, DDE = dose-dependent effect.
Experiment [9] addresses Serine/threonine-protein kinase mTOR (Homo sapiens, UniProt P42345). Briefly: Inhibition of human full length recombinant mTOR in presence of [gamma-33P]ATP incubated for 40 mins by radiometric scintillation counting analysis.
The subject of experiment [10] is A2780. Briefly: Anti-migration activity against human A2780 cells assessed as inhibition of cell migration incubated for 24 to 48 hrs by wound healing assay. The format is functional, cell-based. The note with it: dose 0.1-1 µM, time 24-48 hrs, DDE = dose-dependent effect.
In experiment [11] the test system is A2780. The experiment is described as follows: Anti-migration activity against human A2780 cells assessed as inhibition of cell migration at 0.1 to 1 uM by wound healing assay. The conditions noted are these: dose 0.1-1 µM, time 24-48 hrs, TDE = time-dependent effect. The format is functional, cell-based.
Experiment [12] deals with Phosphatidylinositol 4-phosphate 3-kinase C2 domain-containing subunit alpha (Homo sapiens, UniProt O00443). Briefly: Inhibition of human PI3K-C2alpha (299 to ens residues) using phosphatidylinositol-4, 5-bisphosphate as substrate incubated for 40 mins by HTRF assay.

Molecules are shown by their SMILES.

Serine/threonine-protein kinase ATR (Homo sapiens), sequence (Q13535 whole entry, looked up): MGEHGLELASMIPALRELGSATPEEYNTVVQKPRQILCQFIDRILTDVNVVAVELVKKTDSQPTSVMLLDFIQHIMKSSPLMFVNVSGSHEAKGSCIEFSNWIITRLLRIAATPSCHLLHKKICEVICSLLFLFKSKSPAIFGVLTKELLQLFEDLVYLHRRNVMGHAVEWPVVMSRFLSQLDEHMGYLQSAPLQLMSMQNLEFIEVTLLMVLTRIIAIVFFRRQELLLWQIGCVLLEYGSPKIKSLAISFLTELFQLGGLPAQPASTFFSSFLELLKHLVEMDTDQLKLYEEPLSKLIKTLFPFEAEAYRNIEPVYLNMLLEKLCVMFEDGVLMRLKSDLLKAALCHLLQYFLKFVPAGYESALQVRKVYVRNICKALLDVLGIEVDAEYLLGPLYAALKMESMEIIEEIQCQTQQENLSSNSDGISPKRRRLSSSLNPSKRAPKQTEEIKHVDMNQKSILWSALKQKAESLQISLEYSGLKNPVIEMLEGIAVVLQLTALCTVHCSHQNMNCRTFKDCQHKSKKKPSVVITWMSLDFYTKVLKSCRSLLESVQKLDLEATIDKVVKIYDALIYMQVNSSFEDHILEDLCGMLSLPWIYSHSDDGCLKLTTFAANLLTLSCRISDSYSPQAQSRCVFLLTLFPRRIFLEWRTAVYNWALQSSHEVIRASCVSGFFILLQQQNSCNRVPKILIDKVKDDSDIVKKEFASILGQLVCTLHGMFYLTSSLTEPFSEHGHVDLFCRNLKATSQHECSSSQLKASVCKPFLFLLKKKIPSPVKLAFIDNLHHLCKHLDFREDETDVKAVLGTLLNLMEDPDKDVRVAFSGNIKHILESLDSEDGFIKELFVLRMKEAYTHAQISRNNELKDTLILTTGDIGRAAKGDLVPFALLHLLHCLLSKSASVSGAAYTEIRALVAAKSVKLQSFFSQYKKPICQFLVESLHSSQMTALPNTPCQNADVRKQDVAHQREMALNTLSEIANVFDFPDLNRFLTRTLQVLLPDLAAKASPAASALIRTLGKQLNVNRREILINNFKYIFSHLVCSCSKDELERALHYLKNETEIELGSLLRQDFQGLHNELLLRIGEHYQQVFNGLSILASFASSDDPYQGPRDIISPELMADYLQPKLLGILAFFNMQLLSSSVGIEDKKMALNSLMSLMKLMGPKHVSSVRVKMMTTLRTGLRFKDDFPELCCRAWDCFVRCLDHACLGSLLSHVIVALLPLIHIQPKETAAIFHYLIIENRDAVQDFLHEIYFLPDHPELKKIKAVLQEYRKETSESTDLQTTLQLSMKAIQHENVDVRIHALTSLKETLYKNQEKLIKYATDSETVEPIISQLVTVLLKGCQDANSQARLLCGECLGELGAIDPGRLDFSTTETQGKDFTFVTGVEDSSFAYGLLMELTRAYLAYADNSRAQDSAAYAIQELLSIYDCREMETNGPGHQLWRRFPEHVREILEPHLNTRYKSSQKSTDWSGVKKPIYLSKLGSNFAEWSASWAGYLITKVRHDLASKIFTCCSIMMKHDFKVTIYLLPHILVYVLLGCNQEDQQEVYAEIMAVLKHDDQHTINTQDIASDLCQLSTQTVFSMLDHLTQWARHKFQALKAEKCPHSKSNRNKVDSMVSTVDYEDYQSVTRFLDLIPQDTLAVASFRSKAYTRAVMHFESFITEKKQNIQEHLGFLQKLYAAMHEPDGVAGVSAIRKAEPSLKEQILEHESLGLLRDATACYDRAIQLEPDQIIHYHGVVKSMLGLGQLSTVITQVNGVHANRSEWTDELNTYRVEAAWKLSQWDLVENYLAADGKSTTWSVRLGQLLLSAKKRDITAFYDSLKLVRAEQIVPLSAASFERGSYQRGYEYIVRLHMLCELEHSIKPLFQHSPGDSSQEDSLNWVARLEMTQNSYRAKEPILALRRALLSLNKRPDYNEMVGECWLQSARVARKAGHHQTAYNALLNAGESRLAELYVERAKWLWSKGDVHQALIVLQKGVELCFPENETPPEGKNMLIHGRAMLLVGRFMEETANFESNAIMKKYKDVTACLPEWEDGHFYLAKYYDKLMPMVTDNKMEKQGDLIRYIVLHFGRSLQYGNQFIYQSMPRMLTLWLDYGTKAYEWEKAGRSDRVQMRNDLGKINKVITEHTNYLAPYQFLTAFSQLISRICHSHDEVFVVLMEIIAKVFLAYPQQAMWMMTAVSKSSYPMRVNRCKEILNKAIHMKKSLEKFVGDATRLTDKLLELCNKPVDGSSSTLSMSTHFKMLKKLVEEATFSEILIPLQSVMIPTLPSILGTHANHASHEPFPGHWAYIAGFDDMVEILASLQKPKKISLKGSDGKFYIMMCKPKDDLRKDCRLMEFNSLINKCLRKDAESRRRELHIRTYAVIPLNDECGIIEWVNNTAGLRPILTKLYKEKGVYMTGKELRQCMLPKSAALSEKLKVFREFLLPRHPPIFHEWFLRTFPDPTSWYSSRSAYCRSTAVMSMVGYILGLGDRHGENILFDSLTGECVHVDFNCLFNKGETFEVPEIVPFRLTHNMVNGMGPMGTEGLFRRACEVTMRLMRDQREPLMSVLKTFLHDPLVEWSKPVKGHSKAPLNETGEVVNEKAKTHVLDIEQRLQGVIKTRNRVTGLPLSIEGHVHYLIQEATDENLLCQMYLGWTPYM
PI3-kinase p110-delta/p85-alpha, sequence (P27986 whole entry): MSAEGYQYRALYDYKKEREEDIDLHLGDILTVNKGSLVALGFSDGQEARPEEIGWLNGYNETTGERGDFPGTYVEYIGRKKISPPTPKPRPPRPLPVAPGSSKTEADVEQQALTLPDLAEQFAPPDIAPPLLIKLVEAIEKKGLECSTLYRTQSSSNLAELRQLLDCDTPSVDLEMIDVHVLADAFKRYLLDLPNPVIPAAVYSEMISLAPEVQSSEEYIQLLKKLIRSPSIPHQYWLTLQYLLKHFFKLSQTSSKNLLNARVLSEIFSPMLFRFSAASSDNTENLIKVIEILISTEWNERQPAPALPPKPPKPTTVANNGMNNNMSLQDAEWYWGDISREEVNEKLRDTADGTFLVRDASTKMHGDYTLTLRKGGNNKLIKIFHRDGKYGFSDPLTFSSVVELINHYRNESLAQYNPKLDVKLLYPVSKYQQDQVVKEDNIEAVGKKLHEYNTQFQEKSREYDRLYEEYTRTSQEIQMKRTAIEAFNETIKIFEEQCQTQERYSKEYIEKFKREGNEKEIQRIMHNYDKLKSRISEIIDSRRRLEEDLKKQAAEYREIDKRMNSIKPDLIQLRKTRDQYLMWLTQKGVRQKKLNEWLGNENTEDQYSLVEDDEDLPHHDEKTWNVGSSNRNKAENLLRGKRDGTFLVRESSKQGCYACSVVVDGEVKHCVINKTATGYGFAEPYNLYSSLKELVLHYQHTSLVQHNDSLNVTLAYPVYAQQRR
PI3-kinase p110-delta/p85-alpha, sequence (O00329 whole entry): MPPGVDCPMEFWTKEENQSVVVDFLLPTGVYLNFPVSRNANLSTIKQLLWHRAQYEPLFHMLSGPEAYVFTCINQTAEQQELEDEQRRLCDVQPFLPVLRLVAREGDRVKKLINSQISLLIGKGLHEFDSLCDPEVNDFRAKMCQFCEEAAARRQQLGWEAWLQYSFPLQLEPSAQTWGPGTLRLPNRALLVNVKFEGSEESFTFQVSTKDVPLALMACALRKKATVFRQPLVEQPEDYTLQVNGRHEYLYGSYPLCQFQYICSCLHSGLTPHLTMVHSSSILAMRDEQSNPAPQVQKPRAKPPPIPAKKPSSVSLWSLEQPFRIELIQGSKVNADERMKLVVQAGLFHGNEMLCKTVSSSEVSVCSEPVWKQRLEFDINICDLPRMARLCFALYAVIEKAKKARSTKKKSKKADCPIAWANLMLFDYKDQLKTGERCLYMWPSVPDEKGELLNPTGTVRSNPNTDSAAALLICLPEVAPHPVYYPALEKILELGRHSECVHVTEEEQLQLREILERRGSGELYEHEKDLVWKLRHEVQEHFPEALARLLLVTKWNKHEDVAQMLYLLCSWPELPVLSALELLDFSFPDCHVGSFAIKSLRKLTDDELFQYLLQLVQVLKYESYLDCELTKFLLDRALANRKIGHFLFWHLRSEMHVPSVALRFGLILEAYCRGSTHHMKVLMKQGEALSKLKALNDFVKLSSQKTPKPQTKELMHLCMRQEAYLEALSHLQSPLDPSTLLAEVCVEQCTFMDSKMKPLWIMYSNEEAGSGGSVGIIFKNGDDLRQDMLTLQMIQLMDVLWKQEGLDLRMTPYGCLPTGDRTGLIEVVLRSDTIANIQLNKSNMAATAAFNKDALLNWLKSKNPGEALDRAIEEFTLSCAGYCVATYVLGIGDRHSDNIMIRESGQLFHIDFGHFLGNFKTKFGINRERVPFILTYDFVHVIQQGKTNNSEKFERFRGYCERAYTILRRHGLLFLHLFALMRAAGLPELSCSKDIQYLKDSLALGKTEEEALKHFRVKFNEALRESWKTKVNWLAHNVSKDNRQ
FKBP12A/mTOR, sequence (P62942 2-108 limits assumed, other chains not shown): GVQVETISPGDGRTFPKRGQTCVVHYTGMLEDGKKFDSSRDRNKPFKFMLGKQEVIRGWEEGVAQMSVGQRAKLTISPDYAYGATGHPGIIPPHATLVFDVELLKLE

Consider `C[C@@H]1COCCN1c1nc(-c2cccc3[nH]ccc23)nc2c1CN(S(=O)(=O)C1CC1)C2`, for which the IC50 in experiment [1] is 0.053 µM.
Take `C[C@@H]1COCCN1c1nc(-c2c[nH]c3ccccc23)nc2c1CN(S(=O)(=O)C1CC1)C2`: the IC50 was found to be 2.11 µM with LoVo; 1.35 µM with A2780 [2]; 1.86 µM in the experiment on Granta-519; 3.84 µM in the experiment with SW-620; 3.48 µM in the experiment on NCI-H23; 1.88 µM with MDA-MB-436. The values for the IC50 (in [1]; with MDA-MB-468; in the experiment on CWR22R) were 0.004 µM, 1.74 µM and 2.48 µM, respectively.
Consider `C[C@@H]1COCCN1c1nc(-c2cnc3[nH]ccc3c2)nc2c1CN(S(=O)(=O)C1CC1)C2`, for which the IC50 in [1] stood at 2.71 µM.
Consider `O=S(=O)(C1CC1)N1Cc2nc(-c3c[nH]c4ccccc34)nc(NC3COC3)c2C1`, for which the IC50 in [1] was determined as 10 µM.
`C[C@@H]1COCCN1c1nc(-c2c[nH]c3ccccc23)nc2c1CN(S(=O)(=O)N(C)C)C2`: the concentration for half-maximal inhibition (IC50) in [1] stood at 0.018 µM.
`C[C@@H]1COCCN1c1nc(-c2c[nH]c3ncccc23)nc2c1CN(S(=O)(=O)C1CC1)C2`: the IC50 in [1] is 2.47 µM.
Regarding `C[C@@H]1COCCN1c1nc(-c2c[nH]c3ccccc23)nc2c1CN(S(=O)(=O)C1CCCCC1)C2`, in experiment [1], the IC50 stood at 0.02 µM.
On to `C[C@@H]1COCCN1c1nc(-c2c[nH]c3ccccc23)nc2c1CN(C(=O)C1CC1)C2`, for which the half-maximal inhibitory concentration (IC50) with LoVo was 2.63 µM; in the experiment on A2780 [2], 1.19 µM; in the experiment on Granta-519, 1.63 µM; in the experiment on SW-620, 3.96 µM; in the experiment with NCI-H23, 3.35 µM; in the experiment with MDA-MB-436, 1.29 µM. In addition, the results for the 50% inhibitory concentration (IC50) (in experiment [1]; in the experiment on MDA-MB-468; in the experiment with CWR22R) were 0.006 µM, 1.82 µM and 1.45 µM, respectively.
With `CC(C)S(=O)(=O)N1Cc2nc(-c3c[nH]c4ccccc34)nc(N3CCOC[C@H]3C)c2C1`, the concentration for half-maximal inhibition (IC50) in [3] stood at 9.44 µM; in the experiment on LoVo, 0.84 µM; in the experiment with A2780 [2], 0.67 µM; in the experiment with Granta-519 it was 1.02 µM; in the experiment on SW-620 it was 2.15 µM; with NCI-H23, 2.11 µM. The IC50 is 0.95 µM in the experiment on MDA-MB-436; 0.125 µM on FKBP12A/mTOR; 0.007 µM in experiment [1]; 2.15 µM in experiment [7]; 1.42 µM in the experiment with MDA-MB-468; 0.136 µM in [9]. The figures for the IC50 (with CWR22R; in experiment [12]) were 1.34 µM and 2.72 µM, respectively. Further, the inhibition entry (with A2780 [4]; in experiment [5]; in experiment [6]; in [8]) was “Dde” each time. For the same compound, the Activity entry was “Dde” with A2780 [10] and “Tde” in the experiment with A2780 [11].
Regarding `O=S(=O)(C1CC1)N1Cc2nc(-c3c[nH]c4ccccc34)nc(N3C4CCC3COC4)c2C1`, in experiment [1], the 50% inhibitory concentration (IC50) worked out at 1.39 µM.
As to `C[C@@H]1COCCN1c1nc(-c2c[nH]c3ccccc23)nc2c1CN(C(=O)C(C)(C)C(F)(F)F)C2`, the 50% inhibitory concentration (IC50) in experiment [1] amounted to 0.038 µM.
Consider `C[C@@H]1COCCN1c1nc(-c2c[nH]c3ccccc23)nc2c1CN(C(=O)[C@H]1CCCO1)C2`, for which the IC50 in experiment [1] was determined as 0.011 µM.
In the case of `C[C@@H]1COCCN1c1nc(-c2c[nH]c3ccccc23)nc2c1CN(C(=O)C1CCNCC1)C2`, the IC50 in [1] was determined as 0.601 µM.
In the case of `O=S(=O)(C1CC1)N1Cc2nc(-c3c[nH]c4ccccc34)nc(N3CC4CCC(C3)O4)c2C1`, the IC50 in experiment [1] was 0.544 µM.
With `C[C@@H]1COCCN1c1nc(-c2cc[nH]n2)nc2c1CN(S(=O)(=O)C1CC1)C2`, in [1], the concentration for half-maximal inhibition (IC50) is above 10 µM.
The same measure, in the same setting: for `C[C@H]1COCCN1c1nc(-c2c[nH]c3ccccc23)nc2c1CN(S(=O)(=O)C1CC1)C2` the value was 4.95 µM; for `O=S(=O)(C1CC1)N1Cc2nc(-c3c[nH]c4ccccc34)nc(N3CC4CC3CO4)c2C1` (centres undefined), above 10 µM; for `CCC(C)C(=O)N1Cc2nc(-c3c[nH]c4ccccc34)nc(N3CCOC[C@H]3C)c2C1` (some centres undefined), 0.026 µM.
Still for that read-out and setting: for `C[C@@H]1COCCN1c1nc(-c2c[nH]c3ccccc23)nc2c1CN(C(=O)C(C)(C)CCl)C2` the value was 0.01 µM.
With `C[C@H](CO)Nc1nc(-c2c[nH]c3ccccc23)nc2c1CN(S(=O)(=O)C1CC1)C2`, the IC50 in [1] worked out at 8.36 µM.
With `C[C@@H]1COCCN1c1nc(-c2c[nH]c3ccccc23)nc2c1CN(C(=O)C(C)(C)C)C2`, in [1], the half-inhibitory concentration (IC50) is 0.025 µM.
Take `C[C@@H]1CN(c2nc(-c3c[nH]c4ccccc34)nc3c2CN(S(=O)(=O)C2CC2)C3)C[C@H](C)O1`: the IC50 in [1] is above 10 µM.
On the same count and under the same terms, then `O=S(=O)(C1CC1)N1Cc2nc(-c3c[nH]c4ccccc34)nc(N3C[C@H]4COC[C@H]4C3)c2C1`, with above 10 µM.
`O=S(=O)(C1CC1)N1Cc2nc(-c3c[nH]c4ccccc34)nc(N3CCOCC3)c2C1`: the 50% inhibitory concentration (IC50) in [1] stood at 0.891 µM.
